Measurements reported in patent US20150126530A1, “Novel Substituted Imidazopyrimidines as Gpbar1 Receptor Modulators” (Torrent Pharmaceuticals Limited., priority 2011, published 2015).

target: T1, human TGR5 (Homo sapiens, UniProt Q8TDU6); assay: cAMP Responsive Element (CRE)-Reporter Assay; type: cell-based; settings: luciferase activity relative to vehicle control, five hours, CHO cells transfected with human TGR5 and CRE-luciferase
T1 construct: host or cells: CHO cells (ATCC)
T1 sequence (Q8TDU6 1-330): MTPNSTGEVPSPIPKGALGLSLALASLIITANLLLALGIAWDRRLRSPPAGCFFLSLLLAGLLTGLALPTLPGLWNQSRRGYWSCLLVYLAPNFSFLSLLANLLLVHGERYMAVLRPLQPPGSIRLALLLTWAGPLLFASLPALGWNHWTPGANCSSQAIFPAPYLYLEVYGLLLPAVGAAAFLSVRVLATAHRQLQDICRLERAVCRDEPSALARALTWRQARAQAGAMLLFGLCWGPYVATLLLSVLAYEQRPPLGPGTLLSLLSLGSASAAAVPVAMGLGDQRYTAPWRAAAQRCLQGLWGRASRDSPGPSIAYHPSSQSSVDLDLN
Procedure: (A) cAMP Responsive Element (CRE)-Reporter Assay:
CHO cells (ATCC) were transfected with human TGR5 (oriGene) and CRE-luciferase reporter vector. Transfected cells were treated with vehicle control or test compounds (Conc 10 μM) for five hours and then lysed. Cell lysates were monitored for luciferase acivity. Increase in luciferase activity is considered as a result of TGR5 activation. Results were expressed as fold induction as compared to vehicle control.
Results are summarized in Table 2 where, + indicates 1.5-2 fold while ++, +++, ++++ indicate 2-3 fold, 3-4 fold, and >4 fold induction respectively relative to vehicle control when tested at 10 μM concentration.

First: CN(C(=O)c1c(-c2ccccc2)nc2ncccn12)c1cccc(Cl)c1 [Compound no. 2, N-(3-chlorophenyl)-N-methyl-2-phenylimidazo[1,2-a]pyrimidine-3-carboxamide]
Second: CN(C(=O)c1c(-c2ccccc2)nc2ncccn12)c1ccc(F)cc1 [compound 26, N-(4-fluorophenyl)-N-methyl-2-phenylimidazo[1,2-a]pyrimidine-3-carboxamide]
The fold induction at 10 µM of the first is higher: 3 to 4 for the first, 2 to 3 for the second.

Compared with CN(C(=O)c1c(-c2ccccc2)nc2ncccn12)c1ccc(CC(=O)O)cc1 [Compound no. 3, (4-{methyl[(2-phenylimidazo[1,2-a]pyrimidin-3-yl)carbonyl]amino}phenyl)acetic acid], CN(C(=O)c1c(-c2ccc(-c3ccccc3)cc2)nc2ncccn12)c1ccc(Cl)cc1 [compound 8, 2-(biphenyl-4-yl)-N-(4-chlorophenyl)-N-methylimidazo[1,2-a]pyrimidine-3-carboxamide] is higher in fold induction at 10 µM: 1.5 to 2 for the first, 3 to 4 for the second.

CN(C(=O)c1c(-c2ccc(Cl)cc2)nc2ncccn12)c1ccc2c(c1)CCC2 [Compound no. 4, 2-(4-chlorophenyl)-N-(2,3-dihydro-1H-inden-5-yl)-N-methylimidazo[1,2-a]pyrimidine-3-carboxamide] and CN(C(=O)c1c(-c2ccc(F)cc2)nc2ncccn12)c1ccc2c(c1)CCC2 [Compound no. 6, N-(2,3-dihydro-1H-inden-5-yl)-2-(4-fluorophenyl)-N-methylimidazo[1,2-a]pyrimidine-3-carboxamide] fall in the same range of fold induction at 10 µM: 3 to 4 for the first, 3 to 4 for the second.

First: CN(C(=O)c1c(-c2ccc(Cl)cc2)nc2ncccn12)c1ccc(Cl)cc1 [Compound no. 5, N,2-bis(4-chlorophenyl)-N-methylimidazo[1,2-a]pyrimidine-3-carboxamide]
Second: CN(C(=O)c1c(-c2ccc(Cl)cc2)nc2ncccn12)c1ccc(F)cc1 [compound 18, 2-(4-chlorophenyl)-N-(4-fluorophenyl)-N-methylimidazo[1,2-a]pyrimidine-3-carboxamide]
The fold induction at 10 µM of the first is higher: > 4 for the first, 2 to 3 for the second.

Compared with CN(C(=O)c1c(-c2ccccn2)nc2ncccn12)c1ccc(Cl)cc1 [Compound no. 11, N-(4-chlorophenyl)-N-methyl-2-(pyridin-2-yl)imidazo[1,2-a]pyrimidine-3-carboxamide], CN(C(=O)c1c(-c2cccnc2)nc2ncccn12)c1ccc(Cl)cc1 [compound 20, N-(4-chlorophenyl)-N-methyl-2-(pyridin-3-yl)imidazo[1,2-a]pyrimidine-3-carboxamide] is higher in fold induction at 10 µM: 1.5 to 2 for the first, 2 to 3 for the second.

CN(C(=O)c1c(Oc2ccc(F)cc2)nc2ncccn12)c1ccc(F)cc1F [Compound no. 46, N-(2,4-difluorophenyl)-2-(4-fluorophenoxy)-N-methylimidazo[1,2-a]pyrimidine-3-carboxamide] and CN(C(=O)c1c(-c2ccc(F)cc2)nc2ncccn12)c1ccc(F)cc1F [compound 40, N-(2,4-difluorophenyl)-2-(4-fluorophenyl)-N-methylimidazo[1,2-a]pyrimidine-3-carboxamide] fall in the same range of fold induction at 10 µM: 2 to 3 for the first, 2 to 3 for the second.

CN(C(=O)c1c(-c2ccc(-c3ccccc3)cc2)nc2ncccn12)c1ccc2c(c1)CCC2 [compound 9, 2-(biphenyl-4-yl)-N-(2,3-dihydro-1H-inden-5-yl)-N-methylimidazo[1,2-a]pyrimidine-3-carboxamide] and CN(C(=O)c1c(-c2ccc(O)c(O)c2)nc2ncccn12)c1ccc2c(c1)CCC2 [compound 15, N-(2,3-dihydro-1H-inden-5-yl)-2-(3,4-dihydroxyphenyl)-N-methylimidazo[1,2-a]pyrimidine-3-carboxamide] fall in the same range of fold induction at 10 µM: 2 to 3 for the first, 2 to 3 for the second.

Compared with COc1ccc(-c2nc3ncccn3c2C(=O)N(C)c2ccc(Cl)cc2)cc1OC [compound 10, N-(4-chlorophenyl)-2-(3,4-dimethoxyphenyl)-N-methylimidazo[1,2-a]pyrimidine-3-carboxamide], COc1ccc(N(C)C(=O)c2c(-c3ccc(Cl)cc3)nc3ncccn23)cc1OC [compound 19, 2-(4-chlorophenyl)-N-(3,4-dimethoxyphenyl)-N-methylimidazo[1,2-a]pyrimidine-3-carboxamide] is lower in fold induction at 10 µM: 3 to 4 for the first, 2 to 3 for the second.

CN(C(=O)c1c(-c2ccccc2)nc2ncc(-c3ccccc3)cn12)c1ccc(Cl)cc1 [compound 12, N-(4-chlorophenyl)-N-methyl-2,6-diphenylimidazo[1,2-a]pyrimidine-3-carboxamide] and COc1ccc(-c2nc3ncccn3c2C(=O)N(C)c2ccc(Cl)cc2)cc1 [compound 16, N-(4-chlorophenyl)-2-(4-methoxyphenyl)-N-methylimidazo[1,2-a]pyrimidine-3-carboxamide] fall in the same range of fold induction at 10 µM: 2 to 3 for the first, 2 to 3 for the second.

First: COc1ccc(-c2nc3ncccn3c2C(=O)N(C)c2ccc3c(c2)CCC3)cc1OC [compound 13, N-(2,3-dihydro-1H-inden-5-yl)-2-(3,4-dimethoxyphenyl)-N-methylimidazo[1,2-a]pyrimidine-3-carboxamide]
Second: CN(C(=O)c1c(-c2ccccn2)nc2ncccn12)c1ccc2c(c1)CCC2 [compound 17, N-(2,3-dihydro-1H-inden-5-yl)-N-methyl-2-(pyridin-2-yl)imidazo[1,2-a]pyrimidine-3-carboxamide]
The fold induction at 10 µM of the first is higher: 3 to 4 for the first, 2 to 3 for the second.

CN(C(=O)c1c(-c2ccc(Cl)c(Cl)c2)nc2ncccn12)c1ccc(Cl)cc1 [compound 14, N-(4-chlorophenyl)-2-(3,4-dichlorophenyl)-N-methylimidazo[1,2-a]pyrimidine-3-carboxamide] and CN(C(=O)c1c(-c2ccc3c(c2)OCO3)nc2ncccn12)c1ccc(Cl)cc1 [compound 29, 2-(1,3-benzodioxol-5-yl)-N-(4-chlorophenyl)-N-methylimidazo[1,2-a]pyrimidine-3-carboxamide] fall in the same range of fold induction at 10 µM: 3 to 4 for the first, 3 to 4 for the second.

Compared with CN(C(=O)c1c(-c2ccc(Cl)cc2Cl)nc2ncccn12)c1ccc(F)cc1 [compound 21, 2-(2,4-dichlorophenyl)-N-(4-fluorophenyl)-N-methylimidazo[1,2-a]pyrimidine-3-carboxamide], COc1ccc(-c2nc3ncccn3c2C(=O)N(C)c2ccc(F)cc2)cc1F [compound 41, 2-(3-fluoro-4-methoxyphenyl)-N-(4-fluorophenyl)-N-methylimidazo[1,2-a]pyrimidine-3-carboxamide] is lower in fold induction at 10 µM: 3 to 4 for the first, 2 to 3 for the second.

CN(C(=O)c1c(-c2ccccc2C(F)(F)F)nc2ncccn12)c1ccc(Cl)cc1 [compound 23, N-(4-chlorophenyl)-N-methyl-2-[2-(trifluoromethyl)phenyl]imidazo[1,2-a]pyrimidine-3-carboxamide] and CN(C(=O)c1c(-c2cccc(C(F)(F)F)c2)nc2ncccn12)c1ccc(Cl)cc1 [compound 31, N-(4-chlorophenyl)-N-methyl-2-[3-(trifluoromethyl)phenyl]imidazo[1,2-a]pyrimidine-3-carboxamide] fall in the same range of fold induction at 10 µM: 3 to 4 for the first, 3 to 4 for the second.

First: CN(C(=O)c1c(-c2ccc(Cl)cc2)nc2ncccn12)c1ccc(S(=O)(=O)N(C)C)cc1 [compound 24, 2-(4-chlorophenyl)-N-[4-(dimethylsulfamoyl)phenyl]-N-methylimidazo[1,2-a]pyrimidine-3-carboxamide]
Second: CN(C(=O)c1c(-c2ccc(S(=O)(=O)N(C)C)cc2)nc2ncccn12)c1ccc(Cl)cc1 [compound 37, N-(4-chlorophenyl)-2-[4-(dimethylsulfamoyl)phenyl]-N-methylimidazo[1,2-a]pyrimidine-3-carboxamide]
The fold induction at 10 µM of the first is higher: 2 to 3 for the first, 1.5 to 2 for the second.

First: COc1ccc(N(C)C(=O)c2c(-c3ccc(Cl)cc3)nc3ncccn23)c(OC)c1 [compound 25, 2-(4-chlorophenyl)-N-(2,4-dimethoxyphenyl)-N-methylimidazo[1,2-a]pyrimidine-3-carboxamide]
Second: COc1ccc(NC(=O)c2c(-c3ccc(F)cc3)nc3ncccn23)c(OC)c1 [compound 34, N-(2,4-dimethoxyphenyl)-2-(4-fluorophenyl)imidazo[1,2-a]pyrimidine-3-carboxamide]
The fold induction at 10 µM of the first is higher: 2 to 3 for the first, 1.5 to 2 for the second.

First: CN(C(=O)c1c(-c2ccc(Cl)cc2)nc2ncccn12)c1ccc(O)c(O)c1 [compound 27, 2-(4-chlorophenyl)-N-(3,4-dihydroxyphenyl)-N-methylimidazo[1,2-a]pyrimidine-3-carboxamide]
Second: CN(C(=O)c1c(-c2cccc(C#N)c2)nc2ncccn12)c1ccc(F)cc1 [compound 35, 2-(3-cyanophenyl)-N-(4-fluorophenyl)-N-methylimidazo[1,2-a]pyrimidine-3-carboxamide]
The fold induction at 10 µM of the first is lower: 1.5 to 2 for the first, 2 to 3 for the second.

O=C(Nc1ccc(Cl)cc1)c1c(-c2ccc(F)cc2)nc2ncccn12 [compound 32, N-(4-chlorophenyl)-2-(4-fluorophenyl)imidazo[1,2-a]pyrimidine-3-carboxamide] and O=C(Nc1ccc(F)cc1F)c1c(-c2ccc(F)cc2)nc2ncccn12 [compound 39, N-(2,4-difluorophenyl)-2-(4-fluorophenyl)imidazo[1,2-a]pyrimidine-3-carboxamide] fall in the same range of fold induction at 10 µM: 1.5 to 2 for the first, 1.5 to 2 for the second.

With CN(C(=O)c1c(-c2ccc(S(=O)(=O)N(C)C)cc2)nc2ncccn12)c1ccc(F)cc1 [compound 38, 2-[4-(dimethylsulfamoyl)phenyl]-N-(4-fluorophenyl)-N-methylimidazo[1,2-a]pyrimidine-3-carboxamide] the fold induction at 10 µM was 1.5 to 2.
